# Data published in publication PMC8903829 (eLife, 2022).
# Read-outs that look alike come from different tables or passages of the source.
# Experiments:
# [1] = system: wild-type Sprague Dawley rats; assay: DC-Maximal electroshock seizure assay (DC-MES); format: in vivo, rat
# Description: (§1) Phenytoin was formulated in physiologic saline and was administered intraperitoneally (i.p.) using a 25-gauge needle at a dose volume of 10 mL/kg. All compounds were administered 2 hr prior to electrical seizure induction for all seizure models employed in this study.
# (§2) The maximal electroshock seizure (MES) assay has been extensively used in the search for anticonvulsant substances ([Löscher et al., 1991]; [Piredda et al., 1985]; [White et al., 1995]). The MES assay is sensitive to nonselective NaV inhibitors. It is considered a model for generalized tonic-clonic (GTC) seizures and provides an assessment of seizure spread. Briefly, an electroshock of direct current (DC) was delivered by corneal electrodes (Electro Convulsive Therapy Unit 57,800 from Ugo Basile). The parameters of stimulation were different between mice and rats. In CF1 mice aged 9–12 weeks, a direct current of 50 mA (60 Hz) was delivered for 0.2 s (pulse width of 0.5ms), whereas in Sprague Dawley (SD) rats aged 5–6 weeks, a direct current of 150 mA (60 Hz) was delivered for 0.3 s (pulse width of 0.5ms). Immediately prior to the electroshock, the animals’ eyes were anesthetized with a drop of Alcaine (0.5% proparacaine hydrochloride).
# (§3) An animal was considered protected in the assay in the absence of a GTC with hindlimb extension and is then scored ‘0’. An animal displaying GTC with hindlimb extension was considered not protected and is then scored ‘1’. The experimenter scoring the seizure behavior was blinded to the treatment.
# wild-type mice (CF-1) = assay: DC-Maximal electroshock seizure assay (DC-MES); format: in vivo, mouse; settings: for EC50: read-out: brain EC50
# Description: as §1, §2, §3
# [2] = Bioanalytical assessment of plasma and brain concentrations after rat DC-MES assay; format: in vivo; settings: rat, Rat DC-MES
structure (smiles),measurement,setting,value
"NC(=O)N1c2ccccc2C=Cc2ccccc21 [carbamazepine, Carbamazepine, reference compound]",Rat DC-MES Fraction of animals seizing,"[1]; Study18058, 10 mg/kg",0.857
same,Rat DC-MES Fraction of animals seizing,"[1]; Study18058, 20 mg/kg",0.714
same,Rat DC-MES Fraction of animals seizing,"[1]; Study18068, 30 mg/kg",0.571
same,Rat DC-MES Fraction of animals seizing,"[1]; Study18068, 100 mg/kg",0.428
same,Rat DC-MES Fraction of animals seizing,"[1]; Study18085, 300 mg/kg",0.285
same,EC50,"[1]; WT rat DC-MES (oral; phenytoin i.p.), read-out: plasma EC50",30 µM
same,EC50,"[1]; WT rat DC-MES, 2 hr post dose (oral; phenytoin i.p.), read-out: brain EC50",36 µM
same,WT mouse DC-MES acute Fraction of animals seizing,"wild-type mice (CF-1); Study17131, 10 mg/kg",0.7143
same,WT mouse DC-MES acute Fraction of animals seizing,"wild-type mice (CF-1); Study17131, 30 mg/kg",0.4286
same,WT mouse DC-MES acute Fraction of animals seizing,"wild-type mice (CF-1); Study17131, 100 mg/kg",0.1429
same,WT mouse DC-MES acute Fraction of animals seizing,"wild-type mice (CF-1); Study17134, 10 mg/kg",0.8571
same,WT mouse DC-MES acute Fraction of animals seizing,"wild-type mice (CF-1); Study17134, 30 mg/kg",0.4286
same,EC50,"wild-type mice (CF-1); WT mouse DC-MES, 2 hr post dose (oral; phenytoin i.p.)",44 µM
same,concentration at 2 h,"[2]; brain, oral, 3 mg/kg, Study18058, 3 mg/kg, read-out: Mean [Brain]",0.979 µM
same,concentration at 2 h,"[2]; brain, oral, 10 mg/kg, Study18058, 10 mg/kg, read-out: Mean [Brain]",4.24 µM
same,concentration at 2 h,"[2]; brain, oral, 20 mg/kg, Study18058, 20 mg/kg, read-out: Mean [Brain]",11 µM
same,concentration at 2 h,"[2]; brain, oral, 30 mg/kg, Study18068, 30 mg/kg, read-out: Mean [Brain]",30.4 µM
same,concentration at 2 h,"[2]; brain, oral, 100 mg/kg, Study18068, 100 mg/kg, read-out: Mean [Brain]",55.5 µM
same,concentration at 2 h,"[2]; brain, oral, 300 mg/kg, Study18085, 300 mg/kg, read-out: Mean [Brain]",79.9 µM
same,concentration at 2 h,"[2]; plasma, oral, 3 mg/kg, Study18058, 3 mg/kg, read-out: Mean [Palsma]",0.966 µM
same,concentration at 2 h,"[2]; plasma, oral, 10 mg/kg, Study18058, 10 mg/kg, read-out: Mean [Palsma]",4.27 µM
same,concentration at 2 h,"[2]; plasma, oral, 20 mg/kg, Study18058, 20 mg/kg, read-out: Mean [Palsma]",11.3 µM
same,concentration at 2 h,"[2]; plasma, oral, 30 mg/kg, Study18068, 30 mg/kg, read-out: Mean [Palsma]",24 µM
same,concentration at 2 h,"[2]; plasma, oral, 100 mg/kg, Study18068, 100 mg/kg, read-out: Mean [Palsma]",42.7 µM
same,concentration at 2 h,"[2]; plasma, oral, 300 mg/kg, Study18085, 300 mg/kg, read-out: Mean [Palsma]",65.9 µM
"COC[C@@H](NC(C)=O)C(=O)NCc1ccccc1 [lacosamide, Lacosamide, reference compound]",EC50,"[1]; Rattus norvegicus, 2 h, read-out: brain EC50",4.3 µM
same,EC50,"[1]; Rattus norvegicus, read-out: plasma EC50",24.4 µM
same,Rat DC-MES Fraction of animals seizing,"[1]; Study18060, 2 mg/kg",1
same,Rat DC-MES Fraction of animals seizing,"[1]; Study18060, 6 mg/kg",0.8571
same,Rat DC-MES Fraction of animals seizing,"[1]; Study18060, 12 mg/kg",0.5714
same,Rat DC-MES Fraction of animals seizing,"[1]; Study18068, 100 mg/kg",0
same,EC50,"wild-type mice (CF-1); Mus musculus, 2 h",7.1 µM
same,WT mouse DC-MES acute Fraction of animals seizing,"wild-type mice (CF-1); Study18003, 3 mg/kg",0.625
same,WT mouse DC-MES acute Fraction of animals seizing,"wild-type mice (CF-1); Study18003, 10 mg/kg",0.375
same,WT mouse DC-MES acute Fraction of animals seizing,"wild-type mice (CF-1); Study18003, 30 mg/kg",0.125
same,WT mouse DC-MES acute Fraction of animals seizing,"wild-type mice (CF-1); Study18053, 3 mg/kg",0.6667
same,WT mouse DC-MES acute Fraction of animals seizing,"wild-type mice (CF-1); Study18063, 3 mg/kg",0.75
same,concentration at 2 h,"[2]; in vivo, 2 mg/kg, Study18060, 2 mg/kg, read-out: Mean [Brain]",0.641 µM
same,concentration at 2 h,"[2]; in vivo, 2 mg/kg, Study18060, 2 mg/kg, read-out: Mean [Palsma]",2.97 µM
same,concentration at 2 h,"[2]; in vivo, 6 mg/kg, Study18060, 6 mg/kg, read-out: Mean [Brain]",1.78 µM
same,concentration at 2 h,"[2]; in vivo, 6 mg/kg, Study18060, 6 mg/kg, read-out: Mean [Palsma]",8.43 µM
same,concentration at 2 h,"[2]; in vivo, 12 mg/kg, Study18060, 12 mg/kg, read-out: Mean [Brain]",3.74 µM
same,concentration at 2 h,"[2]; in vivo, 12 mg/kg, Study18060, 12 mg/kg, read-out: Mean [Palsma]",22.9 µM
same,concentration at 2 h,"[2]; in vivo, 100 mg/kg, Study18068, 100 mg/kg, read-out: Mean [Brain]",38.2 µM
same,concentration at 2 h,"[2]; in vivo, 100 mg/kg, Study18068, 100 mg/kg, read-out: Mean [Palsma]",73.5 µM
